{"source": "patent US5182276A", "about": "“Nootropic agent” (Santen Pharmaceutical Co., Ltd., priority 1989, dated 1993)", "key": {"[1]": {"test": "Trial Passive Avoidance Training after cerebral ischemia", "type": "in vivo, male SHR's (rat)", "conditions": "for Reaction Latency: cut-off 300 s, **: P < 0.01 vs. Pathema Control (146.7 ± 30.42)", "method": "(§1) 25-Week-old male SHR's were fixed on the back thereof under anesthetization with 1.5% halothane anesthetic (70% N,O, 30% O2) and the neck thereof was subjected to a median incision. The cerebral ischemia was caused by immediately ligating the both common carotid arteries with,a silk fiber after a vinyl tube was attached to the artery and just before the recovery from the anesthetic state. 3.5 Hours after the ligation, the silk fiber was cut to again initiate the blood circulation. In the test, the compound to be tested was suspended in a 0.5% aqueous solution of methyl cellulose and was initially administered, through oral route, to the animals to be tested 30 minutes before the ligation of the common artery and thereafter it was continuously administered every day over 16 days through oral route provided that the compound was not administered during the behavioral pharmacologic tests of the animals and was administered after completion of the tests.\nAs a testing apparatus, there was used a training box comprising a bright room whose floor was formed from grid, a dark room capable of applying footshock through the floor made of grid and a port opening equipped with a guillotine door disposed at the boundary of these rooms through which the animal could freely move between these two rooms. First, as an acquired trial, the rat was put in the bright room for 30 seconds while the guillotine door was closed, then the guillotine door was opened and the time required for the rat to enter into the dark room through the guillotine door was determined. […] After 24 hours, the rat was again put in the bright room, 30 seconds thereafter the guillotine door was opened and the time required for the animal to confirm the entrance and to enter into the dark room (the reaction latency) was determined. […]"}, "[2]": {"system": "cerebral ischemia / energy metabolic substances in the brain", "test": "Test of Cerebral Energy Metabolism (bilateral common carotid artery ligation, SHR)", "type": "in vivo, male SHR's (rat)", "conditions": "for Hippocampus E.C. (energy charge): **: P < 0.01 vs. Pathema Control (0.628 ± 0.026); for Cerebral Cortex E.C. (energy charge): **: P < 0.01 vs. Pathema Control (0.631 ± 0.0243); for Striatum E.C. (energy charge): **: P < 0.01 vs. Pathema Control (0.679 ± 0.032)", "method": "24-Week-old male SHR's were fixed on the back thereof under with 1.5% halothane anesthetic (70% N,O, 30% O2) and the neck thereof was subjected to a median incision. The cerebral ischemia was caused by immediately ligating bilateral common carotid artery with a silk fiber just before the recovery from the anesthetic state. 3.5 Hours after the ligation, the animals were sacrificed by irradiating them with microwaves (5 KW, 1.5 second). The brain tissues were collected and divided into cerebral cortex, hippocampus and striatum. The brain tissues were homogenized in a 0.6N aqueous perchloric acid solution and centrifuged at 3,000 rpm for 20 minutes. The resulting supernatant was used as the sample for detecting the energy metabolic substances. In the measurement, ATP-Uv test (available from Sigma Co., Ltd.) was used as ATP and lactate-UV test (available from Boeringer Mannheim Yamanouchi Co., Ltd.) was used as lactate. The detection of ADP and AMP was performed according to the method of Bergmeyer (Klin. Chem. Klin. Biochem., 1975, 13, p. 507). The energy charge (hereinafter referred to as \"E.C.\") which served as an indication of the degree of energy sufficiency due to high energy phosphoric acid of adenine nucleotide was calculated from the following relation according to the method of Atkinson (J. Biol. Chem., 1967, 242, p. 3329):\nE.C.=(ATP+1/2ADP)/(ATP+ADP+AMP)\nIn the test, the compound to be tested was suspended in a 0.5% aqueous solution of methyl cellulose and was administered, through an oral route, to the animals to be tested 30 minutes before the ligation of the both common carotid arteries."}, "[3]": {"test": "Test of Hypoxia-Inhibiting Effect (survival time under nitrogen gas)", "type": "in vivo, ICR mice", "conditions": "100 mg/kg oral", "method": "In this test, groups (9 to 10 mice each) of ICR mice were employed. The compound to be tested was suspended in a 0.5% aqueous methyl cellulose solution and was orally administered. 60 Minutes after the administration,each mouse was placed in a transparent container (volume 500m μ) having an exhaust hole and N, gas was supplied to the container at a rate of 5μ/min. The time (survival time in sec.) ,elapsed from the initiation of the nitrogen gas supply until the cessation of breathing of each mouse was determined. As the compounds to be tested, there was used (+)-3,4-dihydro-2-(5-methoxy-2- (3-(N-methyl-N-[2-[(3,4]propoxy]phenyl]-4-methyl-3-oxo-2H-1,4-benzothiazine fumarate (hereinafter referred to as \"Compound A\") which is a representative compound of the present invention. The results obtained are listed in the following Table 1."}, "[4]": {"system": "Choline acetyltransferase (ChAT)", "test": "Activity of Choline acetyltransferase (ChAT) in the striatum after cerebral ischemia", "type": "in vivo, male SHR's (rat)", "method": "as §1\nAfter completion of the learning test, the rat was sacrificed by decapitation and the activity of ChAT which had been believed to be involved in the memory function of animals was determined. The brain tissues were homogenized in 0.05% Triton X-100 containing-phosphate buffer solution (pH 7.4) and the resulting supernatant was used as a sample for determining the ChAT activity. The activity of ChAT was determined according to the method of Fonnum (J. Neurochem., 1975,24, p. 407)."}, "[5]": {"test": "Acute toxicity, oral", "conditions": "rat, in vivo, rats", "source_text": "The acute toxicity thereof was investigated by orally administering the compounds of Formula (I) to rats and they were confirmed to be highly safe.\nCompound A was orally administered to rats to determine the acute toxicity thereof."}, "[6]": {"test": "Water Maze-Learning Test after cerebral ischemia", "type": "in vivo, male SHR's (rat)", "conditions": "for Swimming Time, 3rd Session: **: P < 0.01 vs. Pathema Control (114.9 ± 16.93); for Swimming Time, 2nd Session: **: P < 0.01 vs. Pathema Control (130.0 ± 17.13); for Swimming Time, 1st Session: **: P < 0.01 vs. Pathema Control (167.5 ± 9.59)", "method": "as §1\nThis water maze-learning test was initiated on 7th day after the cerebral ischemia condition was formed. A cylindrical water tank having a diameter of 1.2 m was filled with black water and the temperature thereof was maintained at 20±1° C. A platform which was submerged in the water to a depth of 2 cm and could not be externally seen through the water (hereinafter referred to as \"platform\") was placed at the central point existing between the center of the water tank and the wall thereof.\nThe water maze-learning test was performed once a day (one session) which was continuously performed over three days (three sessions). In the first session (1st day), the animal was allowed to freely swim in the water tank which was free of platforms, then a platform was positioned in the tank and the animal was allowed to learn the presence of the platform of refuge by placing the animal thereon for 30 seconds. The animal was released through four predetermined points on the wall of the water tank over four times and the total time (swimming time (sec)) required until the animal got on the platform over four trials was determined. After the four trials, the animal was again allowed to stand on the platform for […] and thus the first session was completed. In this respect, the maximum total time required over four trials was determined to be 180 seconds. […] The 2nd and 3rd sessions were performed under the same conditions used in the first session except that the test animal was not allowed to freely swim in the water tank prior to the initiation of the test. The spatial positions of the water tank and the platform in the laboratory were not changed at all during the water maze-learning test term."}}, "note": "Structures can show the parent of a compound that is named as a salt.", "data": [{"smiles": "COc1ccc(OCCCN(C)CCOc2ccc3c(c2)OCO3)c(C2Sc3ccccc3N(C)C2=O)c1", "note": "(single isomer, unassigned; (+)) [Compound A, (+)-3,4-dihydro-2-(5-methoxy-2-(3-(N-methyl-N-[2-[(3,4]propoxy]phenyl]-4-methyl-3-oxo-2H-1,4-benzothiazine fumarate]", "values": [{"measurement": "Reaction Latency", "setting": "[1]; 10 mg/kg oral", "value": "271.1 ± 19.21", "unit": "s"}, {"measurement": "Reaction Latency", "setting": "[1]; 30 mg/kg oral", "value": "280.8 ± 19.25", "unit": "s"}, {"measurement": "average reaction latency (in words)", "setting": "[1]; vs. pathema control group", "value": "significantly longer"}, {"measurement": "Hippocampus E.C. (energy charge)", "setting": "[2]; 10 mg/kg oral", "value": "0.706 ± 0.025"}, {"measurement": "Cerebral Cortex E.C. (energy charge)", "setting": "[2]; 10 mg/kg oral", "value": "0.705 ± 0.0237"}, {"measurement": "Striatum E.C. (energy charge)", "setting": "[2]; 10 mg/kg oral", "value": "0.703 ± 0.025"}, {"measurement": "reduction in the E.C. due to the ischemia (in words)", "setting": "[2]; 10 mg/kg oral, cerebrum cortex and hippocampus", "value": "significantly improved"}, {"measurement": "changes in the ATP and the lactate due to the ischemia (in words)", "setting": "[2]; 25 mg/kg oral", "value": "significantly inhibited"}, {"measurement": "effect on the ratio lactate/pyruvate (in words)", "setting": "[2]; 25 mg/kg oral", "value": "substantially improved"}, {"measurement": "ATP", "setting": "[2]; 25 mg/kg oral, 30 min before 3.5 h ligation, average ± standard error, **: P < 0.01 vs. Pathema Control (10.0 ± 1.03)", "value": "16.9 ± 0.87", "unit": "n mole/mg Protein"}, {"measurement": "Lactate/Pyruvate", "setting": "[2]; 25 mg/kg oral, 30 min before 3.5 h ligation, average ± standard error, **: P < 0.01 vs. Pathema Control (40.3 ± 6.78)", "value": "19.1 ± 2.71"}, {"measurement": "Lactate", "setting": "[2]; 25 mg/kg oral, 30 min before 3.5 h ligation, average ± standard error, **: P < 0.01 vs. Pathema Control (128.6 ± 15.84)", "value": "62.3 ± 10.20", "unit": "n mole/mg Protein"}, {"measurement": "Hippocampus E.C. (energy charge)", "setting": "[2]; 30 mg/kg oral", "value": "0.762 ± 0.022"}, {"measurement": "Cerebral Cortex E.C. (energy charge)", "setting": "[2]; 30 mg/kg oral", "value": "0.764 ± 0.0078"}, {"measurement": "Striatum E.C. (energy charge)", "setting": "[2]; 30 mg/kg oral", "value": "0.768 ± 0.0063"}, {"measurement": "reduction in the E.C. due to the ischemia (in words)", "setting": "[2]; 30 mg/kg oral, cerebral cortex, hippocampus and striatum", "value": "completely inhibited"}, {"measurement": "effect on survival time under low oxygen supply (in words)", "setting": "[3]", "value": "significant effect of extending survival time"}, {"measurement": "Survival Time", "setting": "[3]; 60 min before N2, average ± standard error, **: P < 0.01 vs. Control (25.8 ± 0.61)", "value": "35.7 ± 1.28", "unit": "s"}, {"measurement": "ChAT activity in the striatum", "setting": "[4]; 10 mg/kg oral, *: P < 0.05 vs. Pathema Control (3.43 ± 0.097)", "value": "3.84 ± 0.102", "unit": "n mol/mg Protein"}, {"measurement": "ChAT activity in the striatum", "setting": "[4]; 30 mg/kg oral, **: P < 0.01 vs. Pathema Control (3.43 ± 0.097)", "value": "3.94 ± 0.201", "unit": "n mol/mg Protein"}, {"measurement": "lowering of the activity of ChAT in the striatum due to the cerebral ischemia (in words)", "setting": "[4]; rat, in vivo", "value": "inhibited"}, {"measurement": "LD50", "setting": "[5]", "value": 293, "unit": "mg/kg"}, {"measurement": "Swimming Time, 3rd Session", "setting": "[6]; 10 mg/kg oral", "value": "40.9 ± 11.82", "unit": "s"}, {"measurement": "Swimming Time, 2nd Session", "setting": "[6]; 10 mg/kg oral", "value": "61.4 ± 15.06", "unit": "s"}, {"measurement": "Swimming Time, 1st Session", "setting": "[6]; 10 mg/kg oral", "value": "105.8 ± 16.50", "unit": "s"}, {"measurement": "Swimming Time, 3rd Session", "setting": "[6]; 30 mg/kg oral", "value": "34.5 ± 3.60", "unit": "s"}, {"measurement": "Swimming Time, 2nd Session", "setting": "[6]; 30 mg/kg oral", "value": "59.6 ± 9.60", "unit": "s"}, {"measurement": "Swimming Time, 1st Session", "setting": "[6]; 30 mg/kg oral", "value": "97.2 ± 18.85", "unit": "s"}, {"measurement": "time required to reach the base (in words)", "setting": "[6]; vs. pathema control group", "value": "significantly shorter"}]}]}
